Test results: patent US20220245798A1, “TISSUE STEM CELL COUNTING […] USES THEREOF” (Asymmetrex LLC, priority 2021, published 2022)

Test system: HSCs in CD34+-selected normal human bone marrow cells
Test: PSCK-RIFS tissue stem cell counting and cell kinetics determination, serial culture of BM-CD34+ cells with stem cell-active agents
Type: cell-based
Conditions: for Committed Progenitor Cells CC Time / Stem Cells Asym CC Time / Stem Cells SSR Rate, RS / Stem Cells Sym CC Time / Stem Cells Initial Fraction: BM-CD34+ serial culture, agent supplemented at all times; for Committed Progenitor Cells CC Time / Stem Cells Asym CC Time / Stem Cells SSR Rate, RS / Stem Cells Sym CC Time: mean of n=5; for Stem Cells Initial Fraction: mean of n=5 PSCK-RIFS determinations
Description: Strain WI-38 pre-senescent human lung cells were purchased from the American Type Culture Collection (Manassas, Va., USA; ATCC #CCL-75; passage 15). Expanded human liver stem cell strain SACK-XS 12(3) was purchased from Kerafast (Boston, Mass., USA; #EJS002). CD34+-selected normal human bone marrow cells were purchased from the ATCC (#PCS-800-012). CD34+-selected human umbilical cord blood cells were purchased from STEMCELL Technologies, Inc. (Cat#70008; Cambridge, Mass.).
Expanded human liver stem cell strain SACK-XS 12(3) cells were cultured in the supplier's recommended culture medium without inclusion of xanthosine. CD34+-selected normal human bone marrow cells were cultured in StemSpan™ SFEM II medium (STEMCELL Technologies, Inc., Cambridge, Mass., USA; #09655) supplemented with StemSpan™ CD34+ Expansion Supplement (STEMCELL Technologies, Inc., #02691). SACK-XS 12(3) serial cultures were initiated in 6-well plates with 325,000 viable cells. CD34+ cell serial cultures were initiated as 24-well suspension cultures with 65,000 viable cells. For both cell types, ⅓ of total cells were transferred to a new culture well every 96±4 hour interval. Tested agents were supplemented at all times during the culture period.
Based on the determined stem cell symmetric self-renewal frequency (RS), in the early studies presented herein a correction was applied to account for this effect. The correction is determined by the following Equation 1:
NSo corrected=NS1st interval/(RSe^kt+RA−RDS) (Equation 1)
In Equation 1, NS1st interval=NS peak value determined from the initial interval of PSCK; t=the time to the first interval NS peak in the respective simulation; k=ln 2/GTS, the mean generation time for symmetrically self-renewing stem cells; RS, RA, and RDS are mean cell kinetics factors determined by the originating PSCK-RIFS analysis (See EXAMPLE 4). The mean of 10 independent PSCK NS simulations was used for correction. Equation 1 was applied to determine the initial stem cell fraction whenever a significant RS value was found.
The simulation confidence level was estimated from the root mean squared error of the comparison of simulated cumulative population doubling (CPD) data to experimental CPD data. Student's t-test (2-tailed) was used to calculate p-values for confidence for cell kinetics factors determined by the PSCK-RIFS software (See also EXAMPLE 4) with respect to 0.0 and their 95% confidence intervals. Student's t-test (2-tailed) was also used to calculate p-values for confidence for differences in the value of cell kinetics factors derived under different culture conditions.
FIGS. 1 and 11 outline the application of the PSCK-RIFS software. A tissue cell preparation of interest is first counted (including viable cell determination; NC in Table 5) and used to initiate serial cultures, typically in triplicate.
At an experimenter defined interval (SPLI in Table 5), cultures are counted—including viable cell count—and a constant fraction of the cells or number of the cells is transferred to a new culture dish of the same type (FIG. 11). The PSCK software is designed to be versatile for accommodating different formats for the culture time period and/or the number of cells transferred. The total cell count data are transformed into plots of cumulative population doublings (CPD); and the viable cell fraction is used to estimate the dead cell fractions for transient cells (RDT in Table 5) and terminal cells (RDTM in Table 5), which are similarly very abundant during most of the culture period.
FIG. 1 depicts the various inputs that are used by the PSCK software to calculate CPD curve simulations for the period defined by the experimental CPD data. Using the cellular model illustrated in FIG. 1, the software inputs measured values (“m” superscripted in FIG. 1) and discovered factors (“d” superscripted in FIG. 1) obtained from the RIFS software. An important aspect of the PSCK-RIFS method is that there is no underlying mathematical algorithm. […]

Row | Compound | Committed Progenitor Cells CC Time | Stem Cells Asym CC Time | Stem Cells SSR Rate, RS | Stem Cells Sym CC Time | Stem Cells Initial Fraction | change in determined HSC number (within the first four days of culture) | change in stem cell fraction of supplemented cultures (BM-CD34+ cultures) | increase in HSC number (after only 4 days of culture) [fold] | RS, rate of symmetric self-renewal, of HSC divisions (increase from undetectable, p=0.037) [%]
1 | O=NN(CCCl)C(=O)NCCCl [BCNU, bis-chloroethylnitrosourea] | 6.4 h (NS) | 7.6 (NS) h | 0.0 (NS) | 8.2 h (NS) | 1.3 × 10^−4 (0.001) | decrease |  |  | 
2 | O=c1[nH]c(=O)c2ncn([C@@H]3O[C@H](CO)[C@@H](O)[C@H]3O)c2[nH]1 [Xanthosine, xanthosine] | 8.2 h (NS) | 6.6 h (NS) | 3.2 × 10^−3 (0.037) | 9.4 h (NS) | 3.5 × 10^−3 (0.001) |  | increases | 10 | 0.32
